# Laboratory results taken from PMC5608804, “Stepwise Evolution Improves Identification of Diverse Peptides Binding to a Protein Target” (Scientific Reports, 2017).
# Biological target: T1, streptavidin (Streptomyces avidinii, UniProt P22629)
# T1 construct: purchased GE Healthcare (Little Chalfont, UK)
# Test: Cy5-streptavidin binding on HotSpot discovery array, 5-mer L-peptide library
# Conditions: for S/B: signal to background ratio
# Summary of the method: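 Array of 2,476,099 5-mer peptides (19 amino acids, no cysteine) with Gly-Ser linkers, probed overnight at 4 °C with 0.5 µg/ml Cy5-streptavidin in Tris pH 7.4 buffer containing casein or BSA plus Tween-20. Cy5 fluorescence read at 635 nm; peptides selected by signal-to-background >4 across three arrays.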
# [1] = 5-mer L-peptide library array, Cy5-streptavidin, from average of three arrays
# [2] = 5-mer L-peptide library array, Cy5-streptavidin, from the average of three arrays
# [3] = 5-mer L-peptide library array, Cy5-streptavidin
# [4] = average of three arrays, L-peptide 5-mer library
# [5] = 5-mer L-peptide library, from the average of three arrays
# T1 sequence (P22629 25-183): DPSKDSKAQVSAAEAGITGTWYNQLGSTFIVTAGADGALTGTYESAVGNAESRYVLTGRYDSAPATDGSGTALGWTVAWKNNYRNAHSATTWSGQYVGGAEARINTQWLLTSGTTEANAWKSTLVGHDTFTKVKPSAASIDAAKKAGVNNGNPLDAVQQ
substance,measurement,setting,value
DHPQS,S/B (signal to background ratio),[1],49.1
HPQAP,S/B (signal to background ratio),[2],82.5
HPQHF,S/B (signal to background ratio),[1],18.9
QLHPQ,S/B (signal to background ratio),[2],117.5
AAHPQ,S/B (signal to background ratio),[1],123.9
HPQSF,S/B,[3],13.1
WPPSL [L-amino acid 5-mer array peptide],S/B (signal to background ratio),[4],7.7
same,S/B,[3],7.7
RLHPQ,S/B (signal to background ratio),[1],137.3
HPQWA,S/B,[3],8.4
FFHPQ,S/B (signal to background ratio),[1],192.2
KTHPQ,S/B (signal to background ratio),[2],86.3
YHPQK,S/B (signal to background ratio),[1],19.8
LHPMM,S/B,[3],5.2
HHPQA,S/B (signal to background ratio),[1],145.4
LAFFH [L-amino acid 5-mer array peptide],S/B (signal to background ratio),[5],4.9
same,S/B (signal to background ratio),[4],4.9
WHPQL,S/B,[3],14.5
THPQS,S/B (signal to background ratio),[2],70.8
RHPQP,S/B,[3],7.4
THPQH,S/B (signal to background ratio),[1],42.7
GSHPM,S/B (signal to background ratio),[1],43.0
QDHPQ,S/B (signal to background ratio),[2],81.1
HMHPQ,S/B (signal to background ratio),[1],133.8
KHPQT,S/B,[3],7.6
FMHPQ,S/B (signal to background ratio),[1],206.0
WHPNR,S/B (signal to background ratio),[5],5.2
THPMY,S/B,[3],10.9
IHPQA,S/B (signal to background ratio),[1],150.7
LQHPQ,S/B (signal to background ratio),[1],163.6
PIHPM,S/B (signal to background ratio),[1],24.8
TQHPQ,S/B (signal to background ratio),[1],120.0
DEHPQ,S/B (signal to background ratio),[1],26.0
MHPMR,S/B,[3],10.8
ESHPQ,S/B (signal to background ratio),[2],64.3
LDHPQ,S/B (signal to background ratio),[2],89.3
AVHPM,S/B (signal to background ratio),[1],23.8
HFHPM,S/B (signal to background ratio),[2],76.4
HPQRN,S/B,[3],17.7
THPMA,S/B (signal to background ratio),[2],67.4
THPQQ,S/B (signal to background ratio),[1],42.4
HHPMS,S/B (signal to background ratio),[1],40.6
FVHPM,S/B (signal to background ratio),[2],72.0
LHPQF,S/B (signal to background ratio),[2],107.9
KAHPQ,S/B (signal to background ratio),[2],77.0
TWHPM,S/B (signal to background ratio),[2],59.8
GFHPQ,S/B (signal to background ratio),[1],181.0
GMHPM,S/B (signal to background ratio),[1],38.8
HHPQF,S/B (signal to background ratio),[2],110.3
ELHPQ,S/B (signal to background ratio),[1],56.4
WHVPQ,S/B (signal to background ratio),[5],4.3
HHPMN,S/B (signal to background ratio),[1],25.7
WHPQI,S/B (signal to background ratio),[1],41.5
FLHPQ,S/B (signal to background ratio),[1],145.5
NHPQG,S/B (signal to background ratio),[1],118.8
DYHPM,S/B (signal to background ratio),[1],28.4
APHPQ,S/B (signal to background ratio),[1],142.8
FDNWL [L-amino acid 5-mer array peptide],S/B (signal to background ratio),[4],9.9
same,S/B,[3],9.9
EMHPQ,S/B (signal to background ratio),[1],44.9
DAHPQ,S/B (signal to background ratio),[2],62.6
ERHPQ,S/B (signal to background ratio),[1],134.2
HPMYH,S/B,[3],13.0
VHPQN,S/B (signal to background ratio),[1],153.6
PHPQD,S/B,[3],15.6
WHPMW,S/B (signal to background ratio),[5],4.9
SPHPQ,S/B (signal to background ratio),[1],145.4
HPWRH,S/B (signal to background ratio),[5],5.0
HPRWM,S/B (signal to background ratio),[5],4.5
HPQMR,S/B,[3],7.1
LKHPQ,S/B (signal to background ratio),[2],83.5
LHPQV,S/B (signal to background ratio),[2],74.5
QWHPM,S/B (signal to background ratio),[2],72.2
HPMPD,S/B,[3],5.4
RVHPQ,S/B (signal to background ratio),[1],126.3
VNHPQ,S/B (signal to background ratio),[1],137.6
PYHPM,S/B (signal to background ratio),[1],54.5
HPMFV,S/B,[3],7.5
DHPQA,S/B (signal to background ratio),[2],83.3
IHPQK,S/B,[3],11.6
KYHPQ,S/B (signal to background ratio),[1],140.2
TIHPQ,S/B (signal to background ratio),[2],92.6
EHPQY,S/B (signal to background ratio),[1],22.3
WHMPQ,S/B (signal to background ratio),[5],4.6
MIHPQ,S/B (signal to background ratio),[2],97.1
RHPMA,S/B (signal to background ratio),[2],68.6
HPMFS,S/B (signal to background ratio),[1],20.6
THPMM,S/B,[3],11.1
VKHPQ,S/B (signal to background ratio),[2],64.6
HPMHP,S/B,[3],14.9
WMHPQ,S/B (signal to background ratio),[1],194.6
PLHPM,S/B (signal to background ratio),[1],39.0
LGRYH [L-amino acid 5-mer array peptide],S/B (signal to background ratio),[4],9.7
same,S/B,[3],9.7
EGHPM,S/B (signal to background ratio),[1],22.4
KHPMN,S/B,[3],5.9
LPHPM,S/B (signal to background ratio),[2],58.1
WHPMT,S/B,[3],16.9
